In US20040259184A1, “Fluorescent methods for the high-throughput quantification of tartrate-resistant acid phosphatase (TRAP)” (Pharmacia Corporation, priority 2003, published 2004):

Key:
[1] = system: OCL differentiated from RAW 264.7 monocyte-macrophage cells; assay: Automated OCL counting assay (size and TRAP-intensity selected cells, ArrayScan); format: cell-based; conditions: day 6, FIG. 5
Method: (§1) RAW (RAW 264.7 monocyte-macrophage) RAW (ATTC, Manassas, Va.) cells were maintained in culture using DMEM (Dulbecco's Modified Eagle Medium) media containing L-glutamine at 584 mg/L, 1% penicillin/streptomycin, and 10% FBS (fetal bovine serum). For osteoclast differentiation RAW cells were put down onto 96 well plates at a density of 1,000 cells per well in alpha MEM (Minimum Essential Medium) media containing L-glutamine at 292 mg/L, 1% penicillin/streptomycin, 10% FBS, soluble RANKL (PeproTech, Rocky Hill, N.J.) at 10 ng/ml, and M-CSF (Cell Sciences, Norwood, Mass.) at 25 ng/ml. All media were changed every two days. For experiments with compounds, the compounds were added at the time of plating the cells in differentiation media. Additionally compounds were replenished during every media change leading up to the day 6 termination of the experiment.
(§2) Media was removed and cells were fixed onto their plated surface with 4% formaldehyde (Sigma, Saint Louis, Mo.) in PBS (Phosphate Buffer Saline) solution for 20 minutes. After fixing, cells were permeablized in PBS with 0.1% Tween (Sigma, Saint Louis, Mo.) for 15 minutes. Cells were then incubated with 200 uM of ELF 97 phosphatase substrate (Molecular Probes, Eugene, Oreg.) for 15 minutes in a 3.4 mM acetate buffered solution (pH 5.0) containing 6.7 mM Tartrate (Sigma, Saint Louis, Mo.). These conditions (of slightly acidic pH and high concentrations of tartrate) discriminate TRAP activity from other phosphatases. Cells were then washed twice with PBS (pH 7.4). After the final wash, plates were immediately quantified for TRAP activity.
(§3) Quantification of TRAP TRAP activity per well was quantified on a SpetraFluor Plus (Tecan, Research Triangle Park, N.C.) using an excitation of 360 nm and an emission of 550 nm using the optimal gain function. For quantification of the number of OCL, PI (propidium iodide) (Sigma, Saint Louis, Mo.) at a final concentration of 10 ug/ml was added to the TRAP stained cells to nonspecifically stain the cells. After PI staining the 96 well plates were analyzed using an ArrayScanII (Cellomics, Pittsburgh, Pa.) on the Nuclear Translocation software. In this Nuclear Translocation software analysis, the cytoplasmic image area is not used while the nuclear image area is expanded to encompass the entire PI stained cellular area. Cell size selection was performed through nuclear size selection criteria within Channel 1 of the Nuclear Translocation software package. TRAP intensity selection was performed through total fluorescence intensity utilizing Channel 2.
The determination of differentiation into OCL is typically based upon morphological criteria along with staining for TRAP. […] Therefore, basing differentiation solely upon per well TRAP activity could lead to a false positive reading. To circumvent this limitation we developed an automated approach to quantify the number of OCL based upon the size of the cells in addition to TRAP activity. Due to the limitations of the software analyses, the size of the cells were used in place of number of nuclei as a selection criteria for OCL formation. The size of the cells typically correlates with cell fusion and the number of nuclei. Also while some single nucleated cells can also be large in size, these cells typically tend not to be TRAP positive. The data capture was performed using the Cellomics ArrayScan 11, which is an automated fluorescent microscope and plate handler. The data analyses were performed by using the Cellomic's “Nuclear Translocation” imaging analysis software.

[2] = system: TRAP activity in RAW 264.7 monocyte-macrophage cells differentiated into OCL; assay: Fluorescent per-well TRAP activity assay in RAW cells differentiated into OCL; format: cell-based; conditions: for Compound amount at which decrease of TRAP fluorescence is maximal / Compound amount at which dramatic decrease of TRAP fluorescence starts / Inhibition of TRAP activity (result in words) / Effect on detection of TRAP fluorescence: day 6, FIG. 4; for Inhibition of TRAP activity (result in words): IC50's comparable to previously published data; for Effect on TRAP activity: day 6; for Effect on detection of TRAP fluorescence: up to 10.0 uM
Method: as §1, §2, §3

[3] = system: OCL formation; conditions: previously published data (Matsumoto 2000; Kumar 2001); read-out: IC50 of dose dependent inhibition of OCL formation; cited from earlier work

SMILES: C[S+]([O-])c1ccc(-c2nc(-c3ccc(F)cc3)c(-c3ccncc3)[nH]2)cc1 (stereo not drawn) [SB203580]
- Compound amount at which decrease in quantity of TRAP positive cells counted starts [1]: 0.3 µM
- Concentration at which decrease in TRAP positive cells counted is maximal (near zero amounts) [1]: 10.0 µM
- Compound amount at which decrease of TRAP fluorescence is maximal [2]: 10.0 µM
- Compound amount at which dramatic decrease of TRAP fluorescence starts [2]: 1.0 µM
- Inhibition of TRAP activity (result in words) [2]: dose dependent inhibition of TRAP activity

SMILES: CCc1nc(-c2ccc(OC)cc2)[nH]c1-c1ccncc1 [SB202474]
- Compound amount at which decrease in quantity of TRAP positive cells counted starts [1]: 0.3 µM
- Concentration at which decrease in TRAP positive cells counted is maximal (near zero amounts) [1]: 10.0 µM
- Effect on the number of OCL [1]: little effect
- Effect on TRAP activity [2]: little effect
- Effect on detection of TRAP fluorescence [2]: did not significantly inhibit

SMILES: COc1cccc(-c2cc(=O)c3ccccc3o2)c1N [PD98059]
- Effect on number of TRAP positive cells counted ([1]; at 10.0 uM): no significant decrease
- Effect on the number of OCL [1]: little effect
- Effect on TRAP activity [2]: little effect
- Effect on detection of TRAP fluorescence [2]: did not significantly inhibit

SMILES: Oc1ccc(-c2nc(-c3ccc(F)cc3)c(-c3ccncc3)[nH]2)cc1 [SB202190]
- IC50 [3]: 1000 nM
- Compound amount at which decrease of TRAP fluorescence is maximal [2]: 10.0 µM
- Compound amount at which dramatic decrease of TRAP fluorescence starts [2]: 1.0 µM
- Inhibition of TRAP activity (result in words) [2]: dose dependent inhibition of TRAP activity
